Laboratory results taken from the supplement of paper PMC10307832.

Columns and labels:
Test in all cases: relative viability (nuclei count vs DMSO), 5 days (fraction); higher = more cells survive
VE-821 + Tozasertib = compound: CS(=O)(=O)c1ccc(-c2cnc(N)c(C(=O)Nc3ccccc3)n2)cc1 [VE-821] + Cc1cc(Nc2cc(N3CCN(C)CC3)nc(Sc3ccc(NC(=O)C4CC4)cc3)n2)n[nH]1 [Tozasertib] (partner 0.1 µM)
In short: (§1)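 The day after seeding in 1536-well plates, lung cancer cell lines were treated by pin tool with a single drug, or with a fixed anchor-drug dose together with five library-drug doses (not always all listed) in √10 steps. After 5 days, a combined fix-and-stain solution (final 0.05% Triton X-100, 1% formaldehyde, 1 ug/ml Hoechst) was added. Nuclei counted on 4× images gave relative viability as treated counts over vehicle counts, reported as the median of duplicate plates.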

Vismodegib + Decitabine = compound: CS(=O)(=O)c1ccc(C(=O)Nc2ccc(Cl)c(-c3ccccn3)c2)c(Cl)c1 [Vismodegib] + Nc1ncn([C@H]2C[C@H](O)[C@@H](CO)O2)c(=O)n1 [Decitabine] (partner 2 µM)
In short: as §1

Vismodegib + Phenformin = compound: CS(=O)(=O)c1ccc(C(=O)Nc2ccc(Cl)c(-c3ccccn3)c2)c(Cl)c1 [Vismodegib] + N=C(N)NC(=N)NCCc1ccccc1 [Phenformin] (partner 250 µM)
In short: as §1

VE-821 + Bortezomib = compound: CS(=O)(=O)c1ccc(-c2cnc(N)c(C(=O)Nc3ccccc3)n2)cc1 [VE-821] + CC(C)C[C@H](NC(=O)[C@H](Cc1ccccc1)NC(=O)c1cnccn1)B(O)O [Bortezomib] (partner 0.002 µM)
In short: as §1

## NCI-H1395
VE-821 + Tozasertib; first compound 0.08 µM
  relative viability: 0.765
VE-821 + Tozasertib; first compound 0.253 µM
  relative viability: 0.716
VE-821 + Tozasertib; first compound 0.8 µM
  relative viability: 0.671
VE-821 + Tozasertib; first compound 2.53 µM
  relative viability: 0.703
VE-821 + Tozasertib; first compound 8 µM
  relative viability: 0.762
Vismodegib + Decitabine; first compound 0.08 µM
  relative viability: 0.736
Vismodegib + Decitabine; first compound 0.253 µM
  relative viability: 0.696
Vismodegib + Decitabine; first compound 0.8 µM
  relative viability: 0.693
Vismodegib + Decitabine; first compound 2.53 µM
  relative viability: 0.71
Vismodegib + Decitabine; first compound 8 µM
  relative viability: 0.727
Vismodegib + Phenformin; first compound 0.08 µM
  relative viability: 0.345
Vismodegib + Phenformin; first compound 0.253 µM
  relative viability: 0.397
Vismodegib + Phenformin; first compound 0.8 µM
  relative viability: 0.411
Vismodegib + Phenformin; first compound 2.53 µM
  relative viability: 0.439
Vismodegib + Phenformin; first compound 8 µM
  relative viability: 0.485

## NCI-H1563
VE-821 + Bortezomib; first compound 0.08 µM
  relative viability: 0.908
VE-821 + Bortezomib; first compound 0.253 µM
  relative viability: 0.888
VE-821 + Bortezomib; first compound 0.8 µM
  relative viability: 0.784
VE-821 + Bortezomib; first compound 2.53 µM
  relative viability: 0.774
VE-821 + Bortezomib; first compound 8 µM
  relative viability: 0.763
Vismodegib + Phenformin; first compound 0.08 µM
  relative viability: 0.622
Vismodegib + Phenformin; first compound 0.253 µM
  relative viability: 0.623
Vismodegib + Phenformin; first compound 0.8 µM
  relative viability: 0.676
Vismodegib + Phenformin; first compound 2.53 µM
  relative viability: 0.721
Vismodegib + Phenformin; first compound 8 µM
  relative viability: 0.626

## NCI-H1623
VE-821 + Tozasertib; first compound 0.08 µM
  relative viability: 0.481
VE-821 + Tozasertib; first compound 0.253 µM
  relative viability: 0.404
VE-821 + Tozasertib; first compound 0.8 µM
  relative viability: 0.398
VE-821 + Tozasertib; first compound 2.53 µM
  relative viability: 0.463
VE-821 + Tozasertib; first compound 8 µM
  relative viability: 0.364
Vismodegib + Phenformin; first compound 0.08 µM
  relative viability: 0.553
Vismodegib + Phenformin; first compound 0.253 µM
  relative viability: 0.577
Vismodegib + Phenformin; first compound 0.8 µM
  relative viability: 0.661
Vismodegib + Phenformin; first compound 2.53 µM
  relative viability: 0.536
Vismodegib + Phenformin; first compound 8 µM
  relative viability: 0.578

## NCI-H1648
VE-821 + Tozasertib; first compound 0.08 µM
  relative viability: 0.415
VE-821 + Tozasertib; first compound 0.253 µM
  relative viability: 0.608
VE-821 + Tozasertib; first compound 0.8 µM
  relative viability: 0.518
VE-821 + Tozasertib; first compound 2.53 µM
  relative viability: 0.61
VE-821 + Tozasertib; first compound 8 µM
  relative viability: 0.345
Vismodegib + Decitabine; first compound 0.08 µM
  relative viability: 0.499
Vismodegib + Decitabine; first compound 0.253 µM
  relative viability: 0.472
Vismodegib + Decitabine; first compound 0.8 µM
  relative viability: 0.482
Vismodegib + Decitabine; first compound 2.53 µM
  relative viability: 0.459
Vismodegib + Decitabine; first compound 8 µM
  relative viability: 0.527

## NCI-H1703
VE-821 + Bortezomib; first compound 0.08 µM
  relative viability: 0.335
VE-821 + Bortezomib; first compound 0.253 µM
  relative viability: 0.346
VE-821 + Bortezomib; first compound 0.8 µM
  relative viability: 0.339
VE-821 + Bortezomib; first compound 2.53 µM
  relative viability: 0.289
VE-821 + Bortezomib; first compound 8 µM
  relative viability: 0.22

## NCI-H1792
VE-821 + Bortezomib; first compound 0.08 µM
  relative viability: 1.25
VE-821 + Bortezomib; first compound 0.253 µM
  relative viability: 1.05
VE-821 + Bortezomib; first compound 0.8 µM
  relative viability: 0.938
VE-821 + Bortezomib; first compound 2.53 µM
  relative viability: 1.01
VE-821 + Bortezomib; first compound 8 µM
  relative viability: 0.947
Vismodegib + Decitabine; first compound 0.08 µM
  relative viability: 0.513
Vismodegib + Decitabine; first compound 0.253 µM
  relative viability: 0.478
Vismodegib + Decitabine; first compound 0.8 µM
  relative viability: 0.532
Vismodegib + Decitabine; first compound 2.53 µM
  relative viability: 0.481
Vismodegib + Decitabine; first compound 8 µM
  relative viability: 0.521
Vismodegib + Phenformin; first compound 0.253 µM
  relative viability: 0.318
Vismodegib + Phenformin; first compound 0.8 µM
  relative viability: 0.254
Vismodegib + Phenformin; first compound 8 µM
  relative viability: 0.41

## NCI-H1793
VE-821 + Tozasertib; first compound 0.08 µM
  relative viability: 0.323
VE-821 + Tozasertib; first compound 0.253 µM
  relative viability: 0.257
VE-821 + Tozasertib; first compound 0.8 µM
  relative viability: 0.182
VE-821 + Tozasertib; first compound 2.53 µM
  relative viability: 0.234
VE-821 + Tozasertib; first compound 8 µM
  relative viability: 0.159
Vismodegib + Decitabine; first compound 0.253 µM
  relative viability: 0.475
Vismodegib + Decitabine; first compound 0.8 µM
  relative viability: 0.58
Vismodegib + Decitabine; first compound 2.53 µM
  relative viability: 0.476
Vismodegib + Decitabine; first compound 8 µM
  relative viability: 0.579
Vismodegib + Phenformin; first compound 0.253 µM
  relative viability: 0.36
Vismodegib + Phenformin; first compound 0.8 µM
  relative viability: 0.358
Vismodegib + Phenformin; first compound 2.53 µM
  relative viability: 0.365
Vismodegib + Phenformin; first compound 8 µM
  relative viability: 0.375

## NCI-H1944
VE-821 + Tozasertib; first compound 0.08 µM
  relative viability: 0.285
VE-821 + Tozasertib; first compound 0.253 µM
  relative viability: 0.253
VE-821 + Tozasertib; first compound 0.8 µM
  relative viability: 0.219
VE-821 + Tozasertib; first compound 2.53 µM
  relative viability: 0.231
VE-821 + Tozasertib; first compound 8 µM
  relative viability: 0.193
Vismodegib + Decitabine; first compound 0.08 µM
  relative viability: 0.428
Vismodegib + Decitabine; first compound 0.253 µM
  relative viability: 0.413
Vismodegib + Decitabine; first compound 0.8 µM
  relative viability: 0.456
Vismodegib + Decitabine; first compound 8 µM
  relative viability: 0.405
Vismodegib + Phenformin; first compound 0.08 µM
  relative viability: 0.192
Vismodegib + Phenformin; first compound 0.253 µM
  relative viability: 0.207
Vismodegib + Phenformin; first compound 0.8 µM
  relative viability: 0.205
Vismodegib + Phenformin; first compound 2.53 µM
  relative viability: 0.197
Vismodegib + Phenformin; first compound 8 µM
  relative viability: 0.216

## NCI-H2170
VE-821 + Tozasertib; first compound 0.08 µM
  relative viability: 0.744
VE-821 + Tozasertib; first compound 0.253 µM
  relative viability: 0.727
VE-821 + Tozasertib; first compound 0.8 µM
  relative viability: 0.662
VE-821 + Tozasertib; first compound 2.53 µM
  relative viability: 0.794
VE-821 + Tozasertib; first compound 8 µM
  relative viability: 0.477
Vismodegib + Decitabine; first compound 0.08 µM
  relative viability: 0.489
Vismodegib + Decitabine; first compound 0.253 µM
  relative viability: 0.477
Vismodegib + Decitabine; first compound 0.8 µM
  relative viability: 0.455
Vismodegib + Decitabine; first compound 2.53 µM
  relative viability: 0.463
Vismodegib + Decitabine; first compound 8 µM
  relative viability: 0.467
Vismodegib + Phenformin; first compound 0.08 µM
  relative viability: 0.416
Vismodegib + Phenformin; first compound 0.253 µM
  relative viability: 0.409
Vismodegib + Phenformin; first compound 0.8 µM
  relative viability: 0.444
Vismodegib + Phenformin; first compound 2.53 µM
  relative viability: 0.433
Vismodegib + Phenformin; first compound 8 µM
  relative viability: 0.39

## NCI-H2228
VE-821 + Bortezomib; first compound 0.08 µM
  relative viability: 1.23
VE-821 + Bortezomib; first compound 0.253 µM
  relative viability: 0.931
VE-821 + Bortezomib; first compound 0.8 µM
  relative viability: 1.2
VE-821 + Bortezomib; first compound 2.53 µM
  relative viability: 0.824
VE-821 + Bortezomib; first compound 8 µM
  relative viability: 0.635
VE-821 + Tozasertib; first compound 0.08 µM
  relative viability: 0.312
VE-821 + Tozasertib; first compound 0.253 µM
  relative viability: 0.2
VE-821 + Tozasertib; first compound 0.8 µM
  relative viability: 0.212
VE-821 + Tozasertib; first compound 2.53 µM
  relative viability: 0.256
VE-821 + Tozasertib; first compound 8 µM
  relative viability: 0.156
Vismodegib + Phenformin; first compound 0.08 µM
  relative viability: 0.387
Vismodegib + Phenformin; first compound 0.253 µM
  relative viability: 0.452
Vismodegib + Phenformin; first compound 0.8 µM
  relative viability: 0.301
Vismodegib + Phenformin; first compound 2.53 µM
  relative viability: 0.296
Vismodegib + Phenformin; first compound 8 µM
  relative viability: 0.314

## NCI-H2342
VE-821 + Tozasertib; first compound 0.08 µM
  relative viability: 0.434
VE-821 + Tozasertib; first compound 0.253 µM
  relative viability: 0.489
VE-821 + Tozasertib; first compound 0.8 µM
  relative viability: 0.45
VE-821 + Tozasertib; first compound 2.53 µM
  relative viability: 0.415
VE-821 + Tozasertib; first compound 8 µM
  relative viability: 0.365
Vismodegib + Decitabine; first compound 0.08 µM
  relative viability: 0.752
Vismodegib + Decitabine; first compound 0.253 µM
  relative viability: 0.637
Vismodegib + Decitabine; first compound 0.8 µM
  relative viability: 0.709
Vismodegib + Decitabine; first compound 2.53 µM
  relative viability: 0.804
Vismodegib + Decitabine; first compound 8 µM
  relative viability: 0.89
Vismodegib + Phenformin; first compound 0.08 µM
  relative viability: 0.632
Vismodegib + Phenformin; first compound 0.253 µM
  relative viability: 0.612
Vismodegib + Phenformin; first compound 0.8 µM
  relative viability: 0.581
Vismodegib + Phenformin; first compound 2.53 µM
  relative viability: 0.475
Vismodegib + Phenformin; first compound 8 µM
  relative viability: 0.529

## SK-MES-1
VE-821 + Tozasertib; first compound 0.08 µM
  relative viability: 0.968
VE-821 + Tozasertib; first compound 0.253 µM
  relative viability: 0.818
VE-821 + Tozasertib; first compound 0.8 µM
  relative viability: 0.828
VE-821 + Tozasertib; first compound 2.53 µM
  relative viability: 0.561
VE-821 + Tozasertib; first compound 8 µM
  relative viability: 0.325
Vismodegib + Decitabine; first compound 0.08 µM
  relative viability: 0.401
Vismodegib + Decitabine; first compound 0.253 µM
  relative viability: 0.341
Vismodegib + Decitabine; first compound 0.8 µM
  relative viability: 0.435
Vismodegib + Decitabine; first compound 2.53 µM
  relative viability: 0.374
Vismodegib + Decitabine; first compound 8 µM
  relative viability: 0.443
Vismodegib + Phenformin; first compound 0.08 µM
  relative viability: 0.625
Vismodegib + Phenformin; first compound 0.253 µM
  relative viability: 0.647
Vismodegib + Phenformin; first compound 0.8 µM
  relative viability: 0.669
Vismodegib + Phenformin; first compound 2.53 µM
  relative viability: 0.635
Vismodegib + Phenformin; first compound 8 µM
  relative viability: 0.631

## SW 900
VE-821 + Tozasertib; first compound 0.08 µM
  relative viability: 0.604
VE-821 + Tozasertib; first compound 0.253 µM
  relative viability: 0.493
VE-821 + Tozasertib; first compound 0.8 µM
  relative viability: 0.38
VE-821 + Tozasertib; first compound 2.53 µM
  relative viability: 0.333
VE-821 + Tozasertib; first compound 8 µM
  relative viability: 0.248
Vismodegib + Decitabine; first compound 0.08 µM
  relative viability: 0.404
Vismodegib + Decitabine; first compound 0.253 µM
  relative viability: 0.417
Vismodegib + Decitabine; first compound 0.8 µM
  relative viability: 0.429
Vismodegib + Decitabine; first compound 8 µM
  relative viability: 0.481
Vismodegib + Phenformin; first compound 0.08 µM
  relative viability: 0.615
Vismodegib + Phenformin; first compound 0.253 µM
  relative viability: 0.612
Vismodegib + Phenformin; first compound 0.8 µM
  relative viability: 0.718
Vismodegib + Phenformin; first compound 2.53 µM
  relative viability: 0.744
Vismodegib + Phenformin; first compound 8 µM
  relative viability: 0.676
